Patent US10718028B2, “Fluorescent probes for abasic site detection” (CASE WESTERN RESERVE UIVERSITY, priority 2015, dated 2020)

Legend:
DLD1 cells = assay: ARP analysis of FUDR treated DLD1 DNA; assay type: cell-based; conditions: ARP-based DNA Damage Quantification Kit, same DNA samples
Procedure: DNA aliquots (10 μL) from above were diluted in TE buffer (10 μL). DNA concentrations were measured on a Nanodrop 1000 and adjusted to 100 μg/mL in TE buffer. Samples were prepared for ARP analysis using the ARP DNA Damage Quantification Kit (Dojindo #DK02-12). Samples were prepared and analyzed according to the manufacturer's instructions.

[1] = tested on: AP sites in calf thymus DNA; assay: MX or ARP and Cy7MX genomic DNA competition assay; assay type: binding
Procedure: Calf thymus DNA was purchased from Sigma and was reconstituted overnight at 4° C. in either H2O or 500 mM MX (to eliminate basal AP sites) with gentle shaking (1.5 mL water or solution per 5 mg DNA). For samples reconstituted in MX solution, an ethanol precipitation was performed twice before heat and acid treatment (vide infra) then reconstituted in water. The DNA-water solution was aliquoted to 1.5 mL Eppendorf tubes (360 μL) and 10× Citrate buffer (1M NaCl, 100 μM monosodium phosphate, 100 μM monosodium citrate, pH 5.0) was added to a final concentration of 1×. For t=0 min samples, ice-cold 100% EtOH (1.0 mL) was added immediately and the Eppendorf tubes stored at −20° C. Other samples were placed in a 70° C. heating block for 15-90 minutes in 15-minute increments. Samples were removed from heat, precipitated in ice-cold 100% EtOH (1.0 mL), and then chilled at −20° C. for at least 20 minutes. Samples were centrifuged at 12,000×G for 10 min at 4° C. The supernatant was discarded. The process was repeated once beginning with the addition of EtOH (1.0 mL). The DNA pellet was dissolved in 700 μL H2O or TE buffer. Aliquots of 80 μL were put in 1.5 mL Eppendorf tubes. Any samples not used immediately were stored at −80° C.
Solutions of MX and Cy7MX were prepared in H2O varying [MX] from 0-1.9 M and maintaining at 25 μM. […] The ratios of MX:Cy7MX used in this study were: 0, 0.01, 0.1, 0.5, 1, 5, 10, 50, 100, 250, 500, 1000, 2500, 5000, 10000, 25000, 50000, and 75000. […] The following samples were prepared in triplicate: 20 μL of MX/Cy7MX solution was added to 80 μL aliquots of heat/acid treated DNA (t=45 min). Samples were incubated for 1 h at 37° C. in the dark. Ice-cold EtOH (1.0 mL) was added and the DNA was purified by EtOH precipitation three times as described in the heat/acid treatment of genomic DNA section. DNA was dissolved in 150 μL H2O. Aliquots (125 μL) of the samples were added to a black, clear-bottom 96 well plate (Corning) and analyzed with 750 nm excitation and 800 nm emission. Fluorescence was adjusted to DNA concentration.
As before (section 2.3.2) except solutions of ARP and Cy7MX were prepared in H2O varying [ARP] from 0-75 mM and maintaining at 1 μM. The ratios of ARP: Cy7MX used in this study were: 0, 0.1, 1, 10, 100, 500, 1000, 5000, 10000, 25000, 50000, and 75000.

Structure (SMILES): NOCC(=O)NNC(=O)CCCC[C@@H]1SC[C@@H]2NC(=O)N[C@@H]21 [ARP]
- background and sensitivity of AP site detection (DLD1 cells): larger background and lower sensitivity than compound Cy7MX
- ED50 of Cy7MX, excess of competitor ([1]; 1 h at 37° C., constant Cy7MX): 2600 × excess
- ED50, molar ratio of probe to Cy7MX ([1]; calf thymus DNA heat/acid 45 min, FIG. 13): 2600 fold excess
